Experiments:
BSA = target: T1, BSA (Bos taurus, UniProt P02769); experiment: BSA binding study (tryptophan emission quenching); design: species or system bovine
T1 construct: purchased Himedia Chemical Limited
Description: Serum albumin has the capacity to bind with the ligands and helps in the uptake of the drug inside the cells. BSA is commonly used in this study because of its similar structural homology to HSA. […] A significant quenching of BSA fluorescence can be observed upon interaction with drug molecule.[27] The BSA solution of 3 μM concentration was titrated against 10–100 μM of the drug 7e upon excitation of 280 nm. […] The Stern–Volmer constant (KBSA), quenching constant (Kq), binding constant (K), a number of binding sites (n) were calculated from the eqn (5) and (6) (Fig. S4b and c ^†). The Kq values of the newly synthesized compounds were in the order of 10^12 M^−1 s^−1 which were higher enough than maximum scatter collision quenching constant (2.0 × 10^10 M^−1 s^−1) of BSA quenchers (Table 2).[28] High potency of these complexes in cancer cells may be attributed by the strong binding with serum albumin which overcomes the drug resistance by GSH. […]
BSA is a carrier protein that increases solubility of the drug in the blood by binding to it.
Fluorescence spectroscopy is an efficient method to study the interaction of the BSA with the compound by quenching mechanism. The binding of the complexes to the bovine serum albumin (BSA) were measured by tryptophan emission quenching study. The complex […]
solutions (0-60 μM) were gradually added to the solution of BSA (2 μM) in 5 mM Tris- […]
HCl/NaCl buffer (pH 7.2) and the quenching of the emission signals at 350 nm (λex = 295 […]
nm) were recorded. The emission intensity of BSA decreases gradually on increasing the […]
complex concentration. The quenching constant (KBSA) has been determined quantitatively by […]
using Stern-Volmer equation. Stern-Volmer plots of I0/I vs. [complex] were made using the […]
corrected fluorescence data taking into account the effect of dilution. Linear fit of the data […]
Where I0 and I are the emission intensities of BSA in the absence and in the presence of […]
quencher of concentration [Q], gave the quenching constant (K BSA) using Origin Pro 8.5 […]
software. kq is the quenching rate constant, τ0 is the average lifetime of the tryptophan in BSA […]
without quencher reported as 1 x 10-8 sec. The binding propensity of the quenchers with […]
respective serum proteins were expressed by Scatchard equation. For such static quenching […]
interaction, the binding constant (K) and the number of binding sites (n) can be determined […]
according to the Scatchard equation: […]
The linear fitting of the log (I0-I)/I vs. log [Q] plot gives values of n and K from slope and […]
2.8. Stability study, Solubility study, metabolic stability study, Caco-2 permeability study
%Nominal = Mean of calculated concentration of test samples ×100 ….(7) […]
Calculated concentration from calibration curve
CL = k × volume of reaction mixture (mL) … (8) […]
intr protein content (mg)

HeLa cells = experiment: Live cell imaging / cellular uptake; format: cell-based, human; conditions: 50 μM in buffer, 4 h incubation, fluorescence microscopy
Description: Live cell imaging was performed in HeLa cell line. Compound 7e in 50 μM concentration in the buffer, were incubated with HeLa cells for 4 h. […] Significant potency, selectivity and cellular imaging property of compound 7e, mark it as a theranostic agent.
Fig. 2 Fluorescence and bright-field images of live cells: (a) fluorescent image of HeLa cell with compound 7e (50 μM in PBS buffer); incubation time 2 hours (b) bright-field image of HeLa cell with compound 7e (50 μM in PBS buffer); incubation time 2 hours. Scale bar 100 μm.
Then the 96 well plate was placed on the shaker for 10 min and subsequently the absorbance was recorded by the ELISA reader at λ = 490 nm. […] The data were expressed as the growth inhibition percentage calculated according to the equation: % growth inhibition = 100 − [(AD × 100)/AB], where AD is the absorbance measured for sample and AB is the absorbance measured for blank wells (cells with a […]
After incubating for 4 h at 37 °C, all the cells were washed with PBS buffer (pH 7.4). Then, the fluorescence images were recorded with an Olympus Fluorescence microscope with 480- […]
Interaction of complex (7e ) with DNA was recorded using UV-Visible absorption spectroscopy and ethidium bromide displacement assay by fluorescence spectroscopy. […]
The CT-DNA concentration in buffer were calculated by using the UV absorbance value at 260 nm and from the known molar […]

T1 sequence (P02769 25-607): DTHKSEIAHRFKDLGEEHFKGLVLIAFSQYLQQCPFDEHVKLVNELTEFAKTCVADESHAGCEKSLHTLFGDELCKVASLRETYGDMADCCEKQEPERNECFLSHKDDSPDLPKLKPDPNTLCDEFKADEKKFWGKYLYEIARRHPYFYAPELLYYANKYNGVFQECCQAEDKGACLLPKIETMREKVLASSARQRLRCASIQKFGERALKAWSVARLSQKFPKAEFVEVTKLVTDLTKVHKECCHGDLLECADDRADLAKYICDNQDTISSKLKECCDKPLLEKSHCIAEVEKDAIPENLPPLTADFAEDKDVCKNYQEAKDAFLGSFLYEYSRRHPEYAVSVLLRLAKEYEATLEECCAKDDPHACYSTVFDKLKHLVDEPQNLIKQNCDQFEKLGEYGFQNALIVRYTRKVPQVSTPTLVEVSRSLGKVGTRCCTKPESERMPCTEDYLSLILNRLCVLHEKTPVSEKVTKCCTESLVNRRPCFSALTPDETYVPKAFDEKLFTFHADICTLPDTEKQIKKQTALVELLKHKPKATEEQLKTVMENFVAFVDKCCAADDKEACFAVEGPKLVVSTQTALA

## Clc1cc2nc(COc3ccccc3-c3nc4ccccc4s3)c(COc3ccccc3-c3nc4ccccc4s3)nc2cc1Cl [Compound 7e]
BSA
  K BSA, Stern–Volmer quenching constant: 10200 M⁻¹
  K q, quenching rate constant: 1.02e+12 M⁻¹ s⁻¹
BSA; BSA 3 μM titrated with 10–100 μM drug, excitation 280 nm
  quenching of BSA fluorescence: more than 50%
BSA; Scatchard equation
  n, number of binding sites: 1.87
BSA; Scatchard equation, read-out: K, binding constant with BSA (converted)
  Kd: 3.82 mM
HeLa cells
  fluorescence of drug-treated live cells (cellular uptake): significant red fluorescence

From article PMC9061853, “Luminescent bis(benzo[d]thiazolyl)quinoxaline: facile synthesis, nucleic acid and protein BSA interaction, live-cell imaging, biopharmaceutical research and cancer theranostic application” (RSC Advances, 2019)
